ChEMBL document CHEMBL1201862, “PubChem BioAssay data set” (2004)
Where a name gives a salt, the structure may show the parent alone. Calls of active or inactive are those of the source.

Key:
[1] = target: T1, E3 ubiquitin-protein ligase XIAP (Homo sapiens, UniProt P98170); experiment: SAR analysis of Antagonists of IAP-family anti-apoptotic proteins. [Related pubchem assays (depositor defined):AID1018, AID1449, AID1513, AID1514, AID1638]
[2] = target: T1, E3 ubiquitin-protein ligase XIAP; experiment: SAR analysis of Antagonists of XIAP-Bir3 domain of IAP-family anti-apoptotic proteins. [Related pubchem assays (depositor defined):AID1018, AID1449, AID1513, AID1514, AID1638]
[3] = target: T2, Tyrosine-protein phosphatase non-receptor type 7 (Homo sapiens, UniProt P35236); experiment: HePTP (PTPN7) phosphatase inhibitor potency, SAR follow-up, biochemical, set 2 (AID 449736); assay type: functional
T2 sequence (P35236 whole entry): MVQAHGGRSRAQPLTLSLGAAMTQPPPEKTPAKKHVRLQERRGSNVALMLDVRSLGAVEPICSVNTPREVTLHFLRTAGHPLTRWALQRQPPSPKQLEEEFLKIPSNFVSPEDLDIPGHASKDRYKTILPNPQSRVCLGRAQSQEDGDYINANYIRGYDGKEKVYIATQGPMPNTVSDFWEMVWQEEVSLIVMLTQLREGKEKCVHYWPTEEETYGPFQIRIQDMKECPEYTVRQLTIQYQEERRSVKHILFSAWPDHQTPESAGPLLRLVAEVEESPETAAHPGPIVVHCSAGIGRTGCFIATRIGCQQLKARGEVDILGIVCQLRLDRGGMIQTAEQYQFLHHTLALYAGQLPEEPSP

[4] = target: Signal transducer and activator of transcription 3 (Homo sapiens, UniProt P40763); experiment: STAT3 inhibitors, late-stage profile, late-stage follow-up, cell-based, STAT1 panel, qPCR, cytotoxicity, panel member STAT3 Inhibition (AID 2078)
[5] = target: Signal transducer and activator of transcription 1-alpha/beta (Homo sapiens, UniProt P42224); experiment: STAT3 inhibitors, late-stage profile, late-stage follow-up, cell-based, STAT1 panel, qPCR, cytotoxicity, panel member STAT1 Inhibition (AID 2078)
[6] = target: Voltage-dependent T-type calcium channel subunit alpha-1H (Homo sapiens, UniProt O95180); experiment: Cav3.2 T-type channel inhibitors, synthesized analogs, SAR follow-up, cell-based, synthetic library set 2, HEK293 HH8, Fluo-4 (AID 493023); assay type: functional
[7] = target: T3, Sphingosine 1-phosphate receptor 4 (Homo sapiens, UniProt O95977); experiment: Late-stage fluorescence dose response cell-based assay to identify agonists of the Sphingosine 1-Phosphate Receptor 4 (S1P4): purchased compounds EC50. [Related pubchem assays (depositor defined):AID1509, AID1523, AID1563, AID1686, AID1701, AID1801]; assay type: functional
T3 sequence (O95977 whole entry): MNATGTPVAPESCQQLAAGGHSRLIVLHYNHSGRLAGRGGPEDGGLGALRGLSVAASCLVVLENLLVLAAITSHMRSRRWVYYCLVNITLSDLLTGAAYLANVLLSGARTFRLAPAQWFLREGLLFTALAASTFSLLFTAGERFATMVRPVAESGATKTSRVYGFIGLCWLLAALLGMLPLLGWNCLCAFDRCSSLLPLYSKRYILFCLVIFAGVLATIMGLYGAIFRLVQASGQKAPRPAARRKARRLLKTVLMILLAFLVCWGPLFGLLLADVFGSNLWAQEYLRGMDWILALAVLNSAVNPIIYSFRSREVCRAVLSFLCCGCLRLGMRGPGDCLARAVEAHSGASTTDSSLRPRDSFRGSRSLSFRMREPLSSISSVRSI

Troponin, cardiac muscle = Troponin, cardiac muscle (Homo sapiens, UniProt P19429+P45379+P63316); experiment: Fluorescence-based biochemical high throughput dose response assay for activators of the calcium sensitivity of cardiac Regulated Thin Filaments (RTF). [Related pubchem assays (depositor defined):AID493008, AID493018, AID504382, AID504383]; assay type: protein-complex assay
[8] = HeLa 4N DNA content increase, dose response, cell-based, IC50 (AID 1117351); assay type: functional
Protein RecA = target: T4, Protein RecA (Mycobacterium tuberculosis, UniProt P9WHJ3); experiment: Fluorescence Cell-Free Homogeneous Dose Retest to Identify Inhibitors of RecA-Intein Splicing Activity. [Related pubchem assays (depositor defined):AID2097, AID2223, AID489010, AID492950]; assay type: functional
T4 sequence (P9WHJ3 whole entry): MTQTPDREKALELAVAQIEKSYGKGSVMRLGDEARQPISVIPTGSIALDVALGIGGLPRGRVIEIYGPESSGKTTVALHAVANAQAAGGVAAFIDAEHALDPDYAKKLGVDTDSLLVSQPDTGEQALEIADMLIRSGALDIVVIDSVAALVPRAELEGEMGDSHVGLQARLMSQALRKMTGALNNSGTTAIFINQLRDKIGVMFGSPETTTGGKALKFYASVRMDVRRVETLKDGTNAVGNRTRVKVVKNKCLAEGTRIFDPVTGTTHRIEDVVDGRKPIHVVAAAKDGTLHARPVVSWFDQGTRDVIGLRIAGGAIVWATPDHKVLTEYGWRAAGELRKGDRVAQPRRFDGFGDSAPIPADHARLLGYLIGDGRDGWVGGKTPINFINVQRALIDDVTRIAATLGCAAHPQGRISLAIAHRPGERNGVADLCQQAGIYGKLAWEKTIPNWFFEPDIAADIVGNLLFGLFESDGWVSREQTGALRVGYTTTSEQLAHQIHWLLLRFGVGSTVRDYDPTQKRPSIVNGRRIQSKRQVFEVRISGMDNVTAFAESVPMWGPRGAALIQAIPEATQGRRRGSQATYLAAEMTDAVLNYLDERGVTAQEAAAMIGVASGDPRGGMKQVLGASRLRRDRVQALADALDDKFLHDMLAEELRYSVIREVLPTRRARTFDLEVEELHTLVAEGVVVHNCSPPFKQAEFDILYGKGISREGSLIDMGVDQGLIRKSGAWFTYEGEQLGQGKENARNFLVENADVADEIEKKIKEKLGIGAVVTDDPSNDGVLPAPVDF

[9] = target: T5, Replicative DNA helicase DnaB (Mycobacterium tuberculosis, UniProt P9WMR3); experiment: DnaB intein splicing inhibitors, dose response, biochemical, cell-free fluorescence (AID 449749); assay type: functional
T5 sequence (P9WMR3 whole entry): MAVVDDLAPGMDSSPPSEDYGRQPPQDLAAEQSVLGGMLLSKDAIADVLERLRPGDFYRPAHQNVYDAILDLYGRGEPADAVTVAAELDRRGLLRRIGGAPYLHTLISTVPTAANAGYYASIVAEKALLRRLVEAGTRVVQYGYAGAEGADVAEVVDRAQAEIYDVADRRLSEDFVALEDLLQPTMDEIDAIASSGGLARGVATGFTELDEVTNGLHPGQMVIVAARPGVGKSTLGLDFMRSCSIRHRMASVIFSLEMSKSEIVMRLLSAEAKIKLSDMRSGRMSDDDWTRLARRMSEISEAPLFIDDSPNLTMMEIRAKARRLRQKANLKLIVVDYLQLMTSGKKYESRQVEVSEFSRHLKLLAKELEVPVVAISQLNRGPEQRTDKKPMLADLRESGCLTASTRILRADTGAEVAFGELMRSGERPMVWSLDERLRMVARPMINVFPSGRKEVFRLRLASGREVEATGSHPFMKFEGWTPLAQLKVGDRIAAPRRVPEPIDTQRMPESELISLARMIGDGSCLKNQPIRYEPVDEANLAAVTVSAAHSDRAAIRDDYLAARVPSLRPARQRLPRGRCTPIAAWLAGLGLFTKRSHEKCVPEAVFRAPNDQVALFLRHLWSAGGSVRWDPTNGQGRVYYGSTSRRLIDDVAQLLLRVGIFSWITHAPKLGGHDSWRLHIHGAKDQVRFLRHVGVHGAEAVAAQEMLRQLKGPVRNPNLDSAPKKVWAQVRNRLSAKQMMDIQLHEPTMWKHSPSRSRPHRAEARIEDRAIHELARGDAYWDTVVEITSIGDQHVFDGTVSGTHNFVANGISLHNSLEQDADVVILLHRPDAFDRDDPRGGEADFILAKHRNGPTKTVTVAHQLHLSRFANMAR

[10] = HepG2 cell cytotoxicity, dose response, cytotoxicity control for Shn3 inhibitor project, CellTiter-Glo, cherry-picked (AID 624134); assay type: functional, cell-based
[11] = control 3'UTR Renilla luciferase suppression, dose response, counter-screen for Shn3 inhibitor project, cell-based, Clone20-Shn3RL, cherry-picked (AID 624133); assay type: functional
Caspase-6 = target: T6, Caspase-6 (Homo sapiens, UniProt P55212); experiment: human caspase-6 inhibitors, dose response, biochemical, VEID-R110 fluorescence, cherry-pick (AID 720632)
T6 sequence (P55212 whole entry): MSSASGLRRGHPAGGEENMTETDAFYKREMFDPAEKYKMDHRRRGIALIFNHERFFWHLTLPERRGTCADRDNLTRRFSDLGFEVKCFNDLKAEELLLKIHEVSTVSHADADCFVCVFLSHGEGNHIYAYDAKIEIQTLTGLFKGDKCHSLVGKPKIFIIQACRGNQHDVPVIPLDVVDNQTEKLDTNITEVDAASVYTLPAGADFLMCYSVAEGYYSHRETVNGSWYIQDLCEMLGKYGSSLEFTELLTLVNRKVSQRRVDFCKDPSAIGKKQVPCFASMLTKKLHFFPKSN

[12] = HeLa 2N DNA content increase, dose response, cell-based, IC50 (AID 1117349); assay type: functional
[13] = target: Protein-arginine deiminase type-4 (Homo sapiens, UniProt Q9UM07); experiment: human PAD4 inhibitor potency, dose response, biochemical, fluorescence readout (AID 492970)
[14] = Shn3 3'UTR reporter inhibitors, dose response, cell-based, Clone20 osteoblasts, firefly luciferase, cherry-picked (AID 624132); assay type: functional;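 note: firefly luciferase luminescence from reporter carrying the Shn3 3'UTR in osteoblasts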

Which IC50 [1] does the source give for `CN[C@@H](C)C(=O)NC1CCCN(CC(=O)NC2CCc3ccccc3C2)C1=O` (some centres not stated) here?
The IC50 was > 100 µM (inactive).

And the IC50 [2]?
The IC50 was > 100 µM (inactive).

Which IC50 [3] does the source give for `Cc1ccc(-n2c(N)c(C(=O)N3CCN(c4ccccc4F)CC3)sc2=S)cc1` here?
Its IC50 is > 100 µM (inactive).

With `c1ccc(CC2CCN(c3ncnc4sc5c(c34)CCC5)CC2)cc1` as the molecule, how does the IC50 [4] read?
Its IC50 is 20 µM (inactive).

What about the IC50 [5] of the same molecule?
Its IC50 is > 55.7 µM (inactive).

With `CC(C)(C)CCN1CCC[C@H](NC(=O)c2ccc(Cl)cc2Cl)C1` as the molecule, how does the EC50 [6] read?
The EC50 was 10 µM (active).

With `Cc1ccc(Oc2ncc(Cl)cc2Cl)c([N+](=O)[O-])n1` as the molecule, how does the EC50 [7] read?
Its EC50 is > 50 µM (inactive).

Which EC50 (Troponin, cardiac muscle) does the source give for `COc1ccc(/C=N/NC(=O)c2cccnc2)cc1CN1CCOCC1` here?
Its EC50 is > 71.5 µM (inactive).

With `COc1ccc(Cc2nccc3cc(OC)c(OC)cc23)cc1OC` [PAPAVERINE HYDROCHLORIDE] as the molecule, how does the IC50 [8] read?
Its IC50 is > 10 µM (inactive).

And the EC50 (Protein RecA)?
Its EC50 is 3.01 µM (active).

What about the AC50 [9] of the same molecule?
Its AC50 is 5.66 µM (active).

What about the AC50 [10] of the same molecule?
The AC50 was 8.06 µM (active).

What about the AC50 [11] of the same molecule?
The AC50 was 20.8 µM (active).

What about the AC50 (Caspase-6) of the same molecule?
Its AC50 is 22 µM (active).

What about the IC50 [12] of the same molecule?
Its IC50 is > 10 µM (inactive).

What about the IC50 [13] of the same molecule?
The IC50 was 39 µM (inactive).

And the AC50 [14]?
The AC50 was 2.48 µM (active).
